Source: the CheMixHub ionic liquid set
± gives the uncertainty stated by the source.

Assay: xn = mol fraction of the nth substance listed

CCCC[P+](CCCC)(CCCC)CCCC.F[B-](F)(F)F + CC#N + C1CCOC1
298.15 K, 100 kPa
Conditions	viscosity [mPa·s]
x1 = 0.0005747, x2 = 0.84	0.377 ± 0.007
x1 = 0.0006326, x2 = 0.6368	0.408 ± 0.007
x1 = 0.000709, x2 = 0.369	0.437 ± 0.008
x1 = 0.0008641, x2 = 0.8398	0.381 ± 0.007
x1 = 0.0009513, x2 = 0.6366	0.412 ± 0.007
x1 = 0.001066, x2 = 0.3689	0.442 ± 0.008
x1 = 0.001153, x2 = 0.8395	0.384 ± 0.007
x1 = 0.00127, x2 = 0.6364	0.416 ± 0.007
x1 = 0.001429, x2 = 0.3688	0.447 ± 0.008
x1 = 0.001442, x2 = 0.8393	0.388 ± 0.007
x1 = 0.001588, x2 = 0.6362	0.42 ± 0.008
x1 = 0.001736, x2 = 0.839	0.392 ± 0.007
x1 = 0.001786, x2 = 0.3686	0.451 ± 0.008
x1 = 0.001911, x2 = 0.636	0.424 ± 0.008
x1 = 0.002029, x2 = 0.8388	0.396 ± 0.007
x1 = 0.002142, x2 = 0.3685	0.456 ± 0.008
x1 = 0.002229, x2 = 0.6358	0.429 ± 0.008
x1 = 0.002504, x2 = 0.3684	0.461 ± 0.008

CCCCCCCCCCCCCC[P+](CCCCCC)(CCCCCC)CCCCCC.[Br-] + O
100 kPa, x2 = 0.68
Conditions	viscosity [mPa·s]
303.15 K	180.5 ± 3.2
353.15 K	22.85 ± 0.18

CCCCCCCCn1cc[n+](C)c1.[Cl-] + O
Conditions	electrical conductivity [S/m]	viscosity [mPa·s]
278.15 K, 100 kPa, x1 = 0.0001	–	1.534 ± 0.011
278.15 K, 100 kPa, x1 = 0.0001668	–	1.543 ± 0.011
278.15 K, 100 kPa, x1 = 0.0002526	–	1.559 ± 0.012
278.15 K, 100 kPa, x1 = 0.0003767	–	1.575 ± 0.012
278.15 K, 100 kPa, x1 = 0.0005495	–	1.603 ± 0.012
278.15 K, 100 kPa, x1 = 0.000764	–	1.642 ± 0.012
278.15 K, 100 kPa, x1 = 0.0009813	–	1.683 ± 0.013
283.15 K, 100 kPa, x1 = 0.0001	–	1.316 ± 0.01
283.15 K, 100 kPa, x1 = 0.0001668	–	1.322 ± 0.01
283.15 K, 100 kPa, x1 = 0.0002526	–	1.33 ± 0.01
283.15 K, 100 kPa, x1 = 0.0003767	–	1.346 ± 0.01
283.15 K, 100 kPa, x1 = 0.0005495	–	1.368 ± 0.01
283.15 K, 100 kPa, x1 = 0.000764	–	1.404 ± 0.011
283.15 K, 100 kPa, x1 = 0.0009813	–	1.439 ± 0.011
288.15 K, 100 kPa, x1 = 0.0001	–	1.151 ± 0.009
288.15 K, 100 kPa, x1 = 0.0001668	–	1.165 ± 0.009
288.15 K, 100 kPa, x1 = 0.0002526	–	1.182 ± 0.009
288.15 K, 100 kPa, x1 = 0.0003767	–	1.206 ± 0.009
288.15 K, 100 kPa, x1 = 0.0005495	–	1.233 ± 0.009
288.15 K, 100 kPa, x1 = 0.000764	–	1.27 ± 0.01
288.15 K, 100 kPa, x1 = 0.0009813	–	1.304 ± 0.01
293.15 K, 100 kPa, x1 = 0.0001	–	1.01 ± 0.008
293.15 K, 100 kPa, x1 = 0.0001668	–	1.014 ± 0.008
293.15 K, 100 kPa, x1 = 0.0002526	–	1.021 ± 0.008
293.15 K, 100 kPa, x1 = 0.0003767	–	1.031 ± 0.008
293.15 K, 100 kPa, x1 = 0.0005495	–	1.046 ± 0.008
293.15 K, 100 kPa, x1 = 0.000764	–	1.068 ± 0.008
293.15 K, 100 kPa, x1 = 0.0009813	–	1.09 ± 0.008
298.15 K, 100 kPa, x1 = 0.0001	–	0.898 ± 0.007
298.15 K, 100 kPa, x1 = 0.0001668	–	0.901 ± 0.007
298.15 K, 100 kPa, x1 = 0.0002526	–	0.906 ± 0.007
298.15 K, 100 kPa, x1 = 0.0003767	–	0.916 ± 0.007
298.15 K, 100 kPa, x1 = 0.0005495	–	0.929 ± 0.007
298.15 K, 100 kPa, x1 = 0.000764	–	0.947 ± 0.007
298.15 K, 100 kPa, x1 = 0.0009813	–	0.965 ± 0.007
298.15 K, 101.3 kPa, x1 = 4.96e-06	0.00314 ± 3e-05	–
298.15 K, 101.3 kPa, x1 = 7.53e-06	0.00467 ± 5e-05	–
298.15 K, 101.3 kPa, x1 = 1.002e-05	0.00613 ± 6e-05	–
298.15 K, 101.3 kPa, x1 = 1.247e-05	0.00756 ± 8e-05	–
298.15 K, 101.3 kPa, x1 = 1.481e-05	0.00893 ± 9e-05	–
298.15 K, 101.3 kPa, x1 = 1.716e-05	0.01029 ± 0.0001	–
298.15 K, 101.3 kPa, x1 = 1.95e-05	0.0116 ± 0.00012	–
298.15 K, 101.3 kPa, x1 = 2.177e-05	0.0129 ± 0.00013	–
298.15 K, 101.3 kPa, x1 = 2.424e-05	0.01436 ± 0.00014	–
298.15 K, 101.3 kPa, x1 = 2.667e-05	0.0158 ± 0.00016	–
298.15 K, 101.3 kPa, x1 = 2.939e-05	0.0173 ± 0.00017	–
303.15 K, 100 kPa, x1 = 0.0001	–	0.804 ± 0.006
303.15 K, 100 kPa, x1 = 0.0001668	–	0.807 ± 0.006
303.15 K, 100 kPa, x1 = 0.0002526	–	0.812 ± 0.006
303.15 K, 100 kPa, x1 = 0.0003767	–	0.819 ± 0.006
303.15 K, 100 kPa, x1 = 0.0005495	–	0.83 ± 0.006
303.15 K, 100 kPa, x1 = 0.000764	–	0.845 ± 0.007
303.15 K, 100 kPa, x1 = 0.0009813	–	0.861 ± 0.007
308.15 K, 100 kPa, x1 = 0.0001	–	0.725 ± 0.006
308.15 K, 100 kPa, x1 = 0.0001668	–	0.727 ± 0.006
308.15 K, 100 kPa, x1 = 0.0002526	–	0.732 ± 0.006
308.15 K, 100 kPa, x1 = 0.0003767	–	0.737 ± 0.006
308.15 K, 100 kPa, x1 = 0.0005495	–	0.747 ± 0.006
308.15 K, 100 kPa, x1 = 0.000764	–	0.761 ± 0.006
308.15 K, 100 kPa, x1 = 0.0009813	–	0.775 ± 0.006
313.15 K, 100 kPa, x1 = 0.0001	–	0.658 ± 0.005
313.15 K, 100 kPa, x1 = 0.0002526	–	0.665 ± 0.005
313.15 K, 100 kPa, x1 = 0.0003767	–	0.669 ± 0.005
313.15 K, 100 kPa, x1 = 0.0005495	–	0.677 ± 0.005
313.15 K, 100 kPa, x1 = 0.000764	–	0.689 ± 0.005
313.15 K, 100 kPa, x1 = 0.0009813	–	0.701 ± 0.006

298.15 K, 100 kPa, frequency 0.001 MHz
Conditions	electrical conductivity [S/m]
x1 = 0.001709	0.532 ± 0.0084
x1 = 0.002014	0.588 ± 0.0091
x1 = 0.002301	0.647 ± 0.0096
x1 = 0.00266	0.716 ± 0.01
x1 = 0.002911	0.765 ± 0.01
x1 = 0.003215	0.824 ± 0.011
x1 = 0.003519	0.889 ± 0.011
x1 = 0.003824	0.941 ± 0.011
x1 = 0.004074	0.978 ± 0.011
x1 = 0.004467	1.02 ± 0.011
x1 = 0.004967	1.08 ± 0.011
x1 = 0.005947	1.16 ± 0.012
